Test results taken from article PMC10775177, “Application of the C3-Methyltransferase StspM1 for the Synthesis of the Natural Pyrroloindole Motif” (ACS Catalysis, 2023).
Each block holds one compound with its values, some of them ahead of it.

Tests used:
[1] = tested on: T1, StspM1; experiment: MTase-Glo bioluminescence assay (SAH formation), Michaelis-Menten; format: biochemical, Streptomyces sp. HPH0547
T1 construct: recombinant from E. coli BL21 Gold (DE3), Ni-NTA purified

[2] = target: C3-methyltransferase StspM1 from Streptomyces sp. HPH0547 (Streptomyces sp. HPH0547); experiment: SEC; size exclusion chromatography to determine the oligomerization state; measured weight 70.5 kDa against 61.8 kDa for a dimer

- Km ([1]; first methylation, 1.5 μM enzyme, co-substrate SAM fixed at 50 μM, cWW 0.2-200 μM): 3.86 µM
Compound: O=C1N[C@@H](Cc2c[nH]c3ccccc23)C(=O)N[C@H]1Cc1c[nH]c2ccccc12 [7a, LL-cWW]

- Km ([1]; first methylation, 1.5 μM enzyme, co-substrate SAM fixed at 50 μM, cWW 0.2-200 μM, compound label misprinted as 7c): 14.8 µM
Compound: O=C1N[C@H](Cc2c[nH]c3ccccc23)C(=O)N[C@@H]1Cc1c[nH]c2ccccc12 [7b, DD-cWW]

Compound: C[C@@]12C[C@H]3C(=O)N[C@@H](Cc4c[nH]c5ccccc45)C(=O)N3[C@@H]1Nc1ccccc12 [compound 14, single-methylated LL-cWW]
- Km ([1]; second methylation step): 32.5 µM

- stoichiometry N [2]: 2
Compound: C3-methyltransferase StspM1 from Streptomyces sp. HPH0547 (enzyme)
